From patent US12421232B2, “Kinase inhibitor compounds and compositions and methods of use” (ICAHN SCHOOL OF MEDICINE AT MOUNT SINAI, priority 2018, dated 2025)
Blank lines part the entries; values can stand above or below the molecule they belong to.

Columns and labels:
[1] = tested on: human β-cells (dispersed human islet cells); assay: Human β-cell proliferation assay (Ki67 and insulin staining); format: cell-based; settings: for Human β-Cell proliferation: 96 hours
CSNK1G2 = molecular target: T1, CSNK1G2 (Homo sapiens, UniProt P78368); assay: KINOMEscan Assay (DiscoverX); format: binding; settings: CSNK1G2; 10 μM
T1 construct: purchased DiscoverX

HIPK2 = molecular target: T2, HIPK2 (Homo sapiens, UniProt Q9H2X6); assay: KINOMEscan Assay (DiscoverX); format: binding; settings: HIPK2; 10 μM
T2 construct: purchased DiscoverX

CSNK2A1 = molecular target: T3, CSNK2A1 (Homo sapiens, UniProt P68400); assay: KINOMEscan Assay (DiscoverX); format: binding; settings: CSNK2A1; 10 μM
T3 construct: purchased DiscoverX

HIPK3 = molecular target: T4, HIPK3 (Homo sapiens, UniProt Q9H422); assay: KINOMEscan Assay (DiscoverX); format: binding; settings: HIPK3; 10 μM
T4 construct: purchased DiscoverX

VPS34 = molecular target: T5, VPS34 (Homo sapiens, UniProt Q8NEB9); assay: KINOMEscan Assay (DiscoverX); format: binding; settings: VPS34; 10 μM
T5 construct: purchased DiscoverX

[2] = tested on: NFAT2-GFP nuclear translocation in R7T1 rodent beta cells; assay: NFAT2 translocation assay; format: cell-based; settings: 10 μM, 24 hours
From the text: NFAT2T Translocation Assay. […] At least 1000 cells were counted.

[3] = molecular target: T6, JAK3(JH1DOMAIN-CATALYTIC) (Homo sapiens, UniProt P52333); assay: KINOMEscan Assay (DiscoverX); format: binding; settings: JAK3(JH1DOMAIN-[…]); 10 μM; read-out: % DMSO Ctrl
T6 construct: JH1DOMAIN; purchased DiscoverX

PIK3CG = molecular target: T7, PIK3CG (Homo sapiens, UniProt P48736); assay: KINOMEscan Assay (DiscoverX); format: binding; settings: read-out: % DMSO Ctrl
T7 construct: purchased DiscoverX

FLT3(D835V) = molecular target: T8, FLT3(D835V) (Homo sapiens, UniProt P36888, D835V); assay: KINOMEscan Assay (DiscoverX); format: binding; settings: FLT3(D835V) mutant; 10 μM; read-out: % DMSO Ctrl
T8 construct: purchased DiscoverX
T8 sequence (P36888 27-993 D835V): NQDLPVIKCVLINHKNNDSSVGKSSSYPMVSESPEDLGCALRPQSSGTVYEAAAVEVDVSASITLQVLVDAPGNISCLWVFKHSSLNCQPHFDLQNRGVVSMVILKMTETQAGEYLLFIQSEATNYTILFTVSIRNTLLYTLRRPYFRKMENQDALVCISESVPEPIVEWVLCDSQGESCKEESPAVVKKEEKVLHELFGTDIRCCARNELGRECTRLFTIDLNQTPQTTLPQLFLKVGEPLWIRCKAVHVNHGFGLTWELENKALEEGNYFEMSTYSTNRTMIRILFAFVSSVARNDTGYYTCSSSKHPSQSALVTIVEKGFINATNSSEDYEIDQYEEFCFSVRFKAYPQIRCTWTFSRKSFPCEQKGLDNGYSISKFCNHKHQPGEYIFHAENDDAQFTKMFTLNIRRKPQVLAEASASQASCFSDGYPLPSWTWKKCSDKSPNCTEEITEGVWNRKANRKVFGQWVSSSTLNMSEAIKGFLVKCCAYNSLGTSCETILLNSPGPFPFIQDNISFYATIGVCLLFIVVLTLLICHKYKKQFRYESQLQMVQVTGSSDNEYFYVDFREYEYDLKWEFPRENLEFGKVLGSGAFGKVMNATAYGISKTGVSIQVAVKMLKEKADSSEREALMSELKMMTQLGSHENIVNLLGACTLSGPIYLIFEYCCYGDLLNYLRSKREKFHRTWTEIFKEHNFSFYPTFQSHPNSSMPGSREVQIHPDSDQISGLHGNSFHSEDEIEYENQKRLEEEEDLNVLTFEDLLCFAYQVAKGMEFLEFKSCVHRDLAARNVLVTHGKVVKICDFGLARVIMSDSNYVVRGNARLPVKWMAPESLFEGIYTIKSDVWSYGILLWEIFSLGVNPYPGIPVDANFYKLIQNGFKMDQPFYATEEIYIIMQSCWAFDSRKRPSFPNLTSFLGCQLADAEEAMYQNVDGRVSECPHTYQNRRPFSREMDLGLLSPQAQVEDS

IRAK1 = molecular target: T9, IRAK1 (Homo sapiens, UniProt P51617); assay: KINOMEscan Assay (DiscoverX); format: binding; settings: IRAK1; 10 μM
T9 construct: purchased DiscoverX

PIM3 = molecular target: T10, PIM3 (Homo sapiens, UniProt Q86V86); assay: KINOMEscan Assay (DiscoverX); format: binding; settings: PIM3; 10 μM; read-out: % DMSO Ctrl
T10 construct: purchased DiscoverX

DYRK1A = DYRK1A (Homo sapiens, UniProt Q13627); assay: FRET-based LanthaScreen Eu Kinase Binding Assay (Life Technologies)
FLT3(ITD) = assay: KINOMEscan Assay (DiscoverX); format: binding; settings: FLT3(ITD) mutant; 10 μM
FLT3(ITD,D835V) = assay: KINOMEscan Assay (DiscoverX); format: binding; settings: FLT3(ITD,D835V) mutant; 10 μM
[4] = 10 μM, KI67 labeling of insulin cells

T3 sequence (P68400 whole entry): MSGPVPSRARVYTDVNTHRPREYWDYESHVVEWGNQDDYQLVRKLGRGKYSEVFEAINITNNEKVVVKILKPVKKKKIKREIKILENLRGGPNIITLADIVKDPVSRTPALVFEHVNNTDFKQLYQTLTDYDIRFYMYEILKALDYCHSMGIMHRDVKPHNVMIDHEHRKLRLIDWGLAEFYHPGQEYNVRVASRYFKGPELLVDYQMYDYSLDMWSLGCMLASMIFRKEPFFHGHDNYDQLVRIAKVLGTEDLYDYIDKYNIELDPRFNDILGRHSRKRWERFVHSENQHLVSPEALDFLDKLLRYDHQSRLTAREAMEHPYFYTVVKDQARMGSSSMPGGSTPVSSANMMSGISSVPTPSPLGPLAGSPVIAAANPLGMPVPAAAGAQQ
T4 sequence (Q9H422 whole entry): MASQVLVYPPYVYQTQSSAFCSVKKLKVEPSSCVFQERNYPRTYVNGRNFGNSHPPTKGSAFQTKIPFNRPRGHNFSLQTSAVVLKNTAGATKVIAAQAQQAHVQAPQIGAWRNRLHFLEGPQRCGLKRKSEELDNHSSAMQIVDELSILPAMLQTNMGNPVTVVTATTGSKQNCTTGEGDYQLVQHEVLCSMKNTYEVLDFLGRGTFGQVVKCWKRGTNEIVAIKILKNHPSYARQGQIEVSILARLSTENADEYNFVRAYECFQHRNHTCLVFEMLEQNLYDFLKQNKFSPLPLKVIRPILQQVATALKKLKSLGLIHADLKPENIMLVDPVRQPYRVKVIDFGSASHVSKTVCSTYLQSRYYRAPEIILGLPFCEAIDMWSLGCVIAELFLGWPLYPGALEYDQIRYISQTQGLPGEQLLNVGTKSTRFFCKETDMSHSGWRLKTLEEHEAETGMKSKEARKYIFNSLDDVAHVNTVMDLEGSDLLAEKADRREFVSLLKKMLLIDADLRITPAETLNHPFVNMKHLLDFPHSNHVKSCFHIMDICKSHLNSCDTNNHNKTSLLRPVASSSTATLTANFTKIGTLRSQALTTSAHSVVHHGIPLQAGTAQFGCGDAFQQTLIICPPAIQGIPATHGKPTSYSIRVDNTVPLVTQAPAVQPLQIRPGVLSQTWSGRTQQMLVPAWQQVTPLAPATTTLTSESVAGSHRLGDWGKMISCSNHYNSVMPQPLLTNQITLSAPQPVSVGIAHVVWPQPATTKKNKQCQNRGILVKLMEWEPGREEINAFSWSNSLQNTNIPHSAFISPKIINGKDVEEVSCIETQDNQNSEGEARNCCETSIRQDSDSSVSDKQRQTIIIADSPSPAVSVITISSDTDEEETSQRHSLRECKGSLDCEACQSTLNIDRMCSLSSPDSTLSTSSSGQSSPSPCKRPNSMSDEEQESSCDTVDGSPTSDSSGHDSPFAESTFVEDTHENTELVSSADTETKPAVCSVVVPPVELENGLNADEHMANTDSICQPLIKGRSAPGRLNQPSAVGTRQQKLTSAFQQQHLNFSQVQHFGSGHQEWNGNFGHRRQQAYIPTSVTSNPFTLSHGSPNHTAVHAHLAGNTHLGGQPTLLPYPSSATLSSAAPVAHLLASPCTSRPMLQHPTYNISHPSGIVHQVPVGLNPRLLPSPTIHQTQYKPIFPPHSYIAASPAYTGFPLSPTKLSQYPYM
T5 sequence (Q8NEB9 whole entry): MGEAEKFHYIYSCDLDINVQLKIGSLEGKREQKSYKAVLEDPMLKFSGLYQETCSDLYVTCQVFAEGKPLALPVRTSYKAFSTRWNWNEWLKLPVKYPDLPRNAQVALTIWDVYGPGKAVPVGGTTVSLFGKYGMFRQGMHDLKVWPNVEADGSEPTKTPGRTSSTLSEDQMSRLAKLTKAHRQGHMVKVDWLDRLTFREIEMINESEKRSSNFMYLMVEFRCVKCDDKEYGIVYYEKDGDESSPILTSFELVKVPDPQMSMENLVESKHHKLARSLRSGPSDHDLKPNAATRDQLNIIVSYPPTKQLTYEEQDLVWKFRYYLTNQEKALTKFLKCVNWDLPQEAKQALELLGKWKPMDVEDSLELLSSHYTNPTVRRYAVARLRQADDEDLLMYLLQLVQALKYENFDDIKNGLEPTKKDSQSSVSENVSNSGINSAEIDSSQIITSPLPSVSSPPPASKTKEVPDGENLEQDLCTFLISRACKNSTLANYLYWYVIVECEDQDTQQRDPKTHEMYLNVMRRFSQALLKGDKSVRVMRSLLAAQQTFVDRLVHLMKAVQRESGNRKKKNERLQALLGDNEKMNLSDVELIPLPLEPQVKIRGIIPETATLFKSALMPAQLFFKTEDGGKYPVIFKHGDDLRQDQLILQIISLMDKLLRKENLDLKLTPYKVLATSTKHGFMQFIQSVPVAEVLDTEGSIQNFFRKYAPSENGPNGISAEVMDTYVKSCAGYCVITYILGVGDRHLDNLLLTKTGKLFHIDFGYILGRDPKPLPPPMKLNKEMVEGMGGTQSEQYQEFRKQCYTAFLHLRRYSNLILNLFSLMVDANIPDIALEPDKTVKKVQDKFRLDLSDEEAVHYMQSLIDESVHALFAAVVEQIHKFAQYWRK
T7 sequence (P48736 whole entry): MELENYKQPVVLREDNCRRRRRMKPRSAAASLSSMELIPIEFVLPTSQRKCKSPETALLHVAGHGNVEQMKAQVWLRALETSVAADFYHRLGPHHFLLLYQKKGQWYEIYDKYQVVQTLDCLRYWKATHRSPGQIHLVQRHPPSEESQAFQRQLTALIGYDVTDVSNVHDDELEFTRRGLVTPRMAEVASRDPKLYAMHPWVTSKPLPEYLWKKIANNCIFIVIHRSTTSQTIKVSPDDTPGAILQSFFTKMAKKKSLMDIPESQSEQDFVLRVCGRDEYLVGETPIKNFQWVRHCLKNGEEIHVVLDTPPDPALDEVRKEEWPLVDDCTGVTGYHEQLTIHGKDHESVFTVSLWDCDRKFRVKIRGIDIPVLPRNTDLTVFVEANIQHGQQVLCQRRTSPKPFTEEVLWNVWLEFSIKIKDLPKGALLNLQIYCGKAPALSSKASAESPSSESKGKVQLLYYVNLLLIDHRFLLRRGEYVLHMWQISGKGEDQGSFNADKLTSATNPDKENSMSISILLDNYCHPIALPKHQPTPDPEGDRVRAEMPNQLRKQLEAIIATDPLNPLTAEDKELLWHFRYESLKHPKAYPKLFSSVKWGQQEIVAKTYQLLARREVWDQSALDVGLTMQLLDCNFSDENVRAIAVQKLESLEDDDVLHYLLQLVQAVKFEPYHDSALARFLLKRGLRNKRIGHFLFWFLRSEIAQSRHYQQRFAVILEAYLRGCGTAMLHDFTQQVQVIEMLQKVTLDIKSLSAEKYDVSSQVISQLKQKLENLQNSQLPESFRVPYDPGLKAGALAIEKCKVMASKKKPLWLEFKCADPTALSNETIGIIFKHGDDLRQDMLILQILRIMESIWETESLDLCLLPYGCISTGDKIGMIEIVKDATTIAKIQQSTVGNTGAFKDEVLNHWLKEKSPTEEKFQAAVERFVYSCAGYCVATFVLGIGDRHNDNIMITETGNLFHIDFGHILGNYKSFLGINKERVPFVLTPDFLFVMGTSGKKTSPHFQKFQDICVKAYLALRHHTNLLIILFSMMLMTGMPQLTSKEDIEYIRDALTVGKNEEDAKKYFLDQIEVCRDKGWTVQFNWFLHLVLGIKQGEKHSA
T2 sequence (Q9H2X6 whole entry): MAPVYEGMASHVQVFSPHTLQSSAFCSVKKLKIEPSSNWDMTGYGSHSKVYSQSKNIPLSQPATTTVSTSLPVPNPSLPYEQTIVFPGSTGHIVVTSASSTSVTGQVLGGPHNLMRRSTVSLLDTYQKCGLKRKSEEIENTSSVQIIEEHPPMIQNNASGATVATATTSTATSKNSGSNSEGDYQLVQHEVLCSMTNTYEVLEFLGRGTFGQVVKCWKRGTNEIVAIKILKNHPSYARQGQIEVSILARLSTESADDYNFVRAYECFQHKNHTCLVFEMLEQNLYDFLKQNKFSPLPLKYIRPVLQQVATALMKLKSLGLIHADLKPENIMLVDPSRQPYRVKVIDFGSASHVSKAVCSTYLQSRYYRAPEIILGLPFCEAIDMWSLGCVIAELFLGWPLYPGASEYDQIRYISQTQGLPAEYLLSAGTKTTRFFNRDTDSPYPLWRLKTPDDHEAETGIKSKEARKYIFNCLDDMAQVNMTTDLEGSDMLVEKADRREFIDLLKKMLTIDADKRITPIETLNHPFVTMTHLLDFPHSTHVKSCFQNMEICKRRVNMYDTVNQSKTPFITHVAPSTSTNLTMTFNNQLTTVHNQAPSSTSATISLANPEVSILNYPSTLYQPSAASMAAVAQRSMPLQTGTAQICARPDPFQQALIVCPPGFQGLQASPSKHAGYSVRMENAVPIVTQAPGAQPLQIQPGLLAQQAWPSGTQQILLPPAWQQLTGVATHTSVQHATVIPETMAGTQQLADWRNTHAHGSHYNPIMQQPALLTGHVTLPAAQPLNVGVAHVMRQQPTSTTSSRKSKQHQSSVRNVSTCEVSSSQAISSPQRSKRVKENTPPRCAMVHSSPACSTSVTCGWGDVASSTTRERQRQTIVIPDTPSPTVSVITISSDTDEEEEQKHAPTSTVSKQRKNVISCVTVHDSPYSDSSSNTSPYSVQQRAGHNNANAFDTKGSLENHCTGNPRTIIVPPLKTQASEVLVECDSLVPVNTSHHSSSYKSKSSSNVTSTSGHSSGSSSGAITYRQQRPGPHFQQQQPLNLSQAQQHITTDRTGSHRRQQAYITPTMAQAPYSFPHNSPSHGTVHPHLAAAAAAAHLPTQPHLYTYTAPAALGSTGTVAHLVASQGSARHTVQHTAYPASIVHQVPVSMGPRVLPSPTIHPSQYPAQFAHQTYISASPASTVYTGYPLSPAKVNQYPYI
T6 sequence (P52333 822-1111 limits assumed): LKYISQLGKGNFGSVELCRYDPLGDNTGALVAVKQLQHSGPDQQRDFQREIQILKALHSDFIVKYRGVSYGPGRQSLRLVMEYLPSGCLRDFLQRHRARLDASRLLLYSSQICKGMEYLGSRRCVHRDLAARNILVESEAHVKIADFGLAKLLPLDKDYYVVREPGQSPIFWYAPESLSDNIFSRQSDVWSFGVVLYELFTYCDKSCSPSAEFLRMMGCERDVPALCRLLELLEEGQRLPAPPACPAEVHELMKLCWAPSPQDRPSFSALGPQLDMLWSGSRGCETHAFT

Molecule: 4-(7-Methoxy-1-methyl-β-carbolin-9-yl)propionitrile [Compound 20-1o]
Human β-Cell proliferation ([1]; 10 μM): 1 (10)

Molecule: COc1ccc2c(c1)[nH]c1c(Cl)nccc12 [Compound 1-5, 1-Chloro-7-Methoxy-9H-β-Carboline]
human β-cell proliferation (in words) [1, 4]: very good human β-cell proliferation
human β-cell proliferation (in words) ([1]; concentration not given): human β-cell proliferation comparable to that of harmine

Molecule: COc1ccc2c(c1)[nH]c1c(N3CCC3)nccc12 [Compound 1-6a, 1-(Azetidin-1-yl)-7-Methoxy-9H-β-Carboline]
human β-cell proliferation (in words) ([1]; concentration not given): did not show any β-cell proliferation

Molecule: COc1ccc2c(c1)[nH]c1c(N3CCCC3)nccc12 [Compound 1-6b, 1-(Pyrrolidin-1-yl)-7-Methoxy-9H-β-Carboline]
human β-cell proliferation (in words) ([1]; concentration not given): did not show any β-cell proliferation

Molecule: COc1ccc2c(c1)[nH]c1c(N3CCCC3c3ccccc3)nccc12 (stereo not drawn) [Compound 1-6d, 1-(2-Phenylpyrrolidin-1-yl)-7-Methoxy-9H-β-Carboline]
human β-cell proliferation (in words) ([1]; concentration not given): did not show any β-cell proliferation

Molecule: COc1ccc2c(c1)[nH]c1c(N3CCCC3Cc3ccccc3)nccc12 (stereo not drawn) [Compound 1-6f, 1-(2-Benzylpyrrolidin-1-yl)-7-Methoxy-9H-β-Carboline]
human β-cell proliferation (in words) ([1]; concentration not given): did not show any β-cell proliferation

Molecule: COc1ccc2c(c1)[nH]c1c(CO)nccc12 [Compound 2-2, 1-Hydroxymethyl-7-Methoxy-9H-β-Carboline]
beta cell toxicity ([1]; at 30 μM): did not cause toxicity
% DMSO Ctrl (CSNK1G2): no inhibition
% DMSO Ctrl (HIPK2): no inhibition
% DMSO Ctrl (CSNK2A1): no inhibition
% DMSO Ctrl (HIPK3): no inhibition
% DMSO Ctrl (VPS34): no inhibition
NFAT2 translocation to nucleus [2]: drove NFAT2 translocation to nucleus
remaining binding at 10 µM [3]: 99%
remaining binding at 10 µM (PIK3CG): 44%
remaining binding at 10 µM (FLT3(D835V)): 37%
% DMSO Ctrl (IRAK1): no inhibition
remaining binding at 10 µM (PIM3): 77%

Molecule: COc1ccc2c(c1)[nH]c1c(C(C)=O)nccc12 [Compound 3-2, 1-acetyl-7-methoxy-9H-β-carboline]
human β-cell proliferation (in words) [1, 4]: reduced β-cell proliferation
human β-cell proliferation (in words) ([1]; 30 μM): proliferation in the range comparable to harmine
human β-cell proliferation (in words) ([1]; concentration not given): human β-cell proliferation comparable to that of harmine

Molecule: Cc1nccc2c1[nH]c1cc(OCCCCCC(N)=O)ccc12 [Compound 10-3e, 6-(7-oxy-1-methyl-9-H-b-carbolin)hexanamide]
Human β-Cell proliferation ([1]; 10 μM): 0.2 (10)
human β-cell proliferation (in words) ([1]; concentration not given): reduced jβ-cell proliferation compared to harmine

Molecule: C=CCn1c2cc(OC)ccc2c2ccnc(C)c21 [Compound 20-1t, 3-(7-Methoxy-1-methyl-β-carbolin-9-yl)-propan-1-ene]
IC50 (DYRK1A): 42 nM

Molecule: COc1ccc2c3ccnc(C)c3n(Cc3ccccc3)c2c1 [Compound 20-1x, 1-(7-Methoxy-1-methyl-β-carbolin-9-yl)-1-phenylmethane]
IC50 (DYRK1A): 275 nM

Molecule: COc1ccc2c3ccnc(C)c3n(CCc3ccccc3)c2c1 [Compound 20-1y, 2-(7-Methoxy-1-methyl-β-carbolin-9-yl)-1-phenylethane]
IC50 (DYRK1A): 31 nM

Molecule: COc1ccc2c3ccnc(C)c3n(CCCC(N)=O)c2c1 [Compound 20-2c, 4-(7-Methoxy-1-methyl-β-carbolin-9-yl)butanamide]
% DMSO Ctrl (FLT3(ITD)): 57 % DMSO Ctrl
% DMSO Ctrl (FLT3(ITD,D835V)): 38 % DMSO Ctrl

IC50 (DYRK1A): 77 nM
Molecule: CCCC(C)NC(=O)C(C)(C)CCn1c2cc(OC)ccc2c2ccnc(C)c21 (stereo not drawn) [Compound 20-10l, N-(1-methylbutyl)-4-(7-Methoxy-1-methyl-β-carbolin-9-yl)-α,α-dimethylbutanamide]

Molecule: C#CCCn1c2cc(OC)ccc2c2ccnc(C)c21 [Compound 20-23b, 4-(7-Methoxy-1-methyl-β-carbolin-9-yl)-but-1-yne]
IC50 (DYRK1A): 33 nM

IC50 (DYRK1A): 437 nM
Molecule: COCCn1cc(CCCn2c3cc(OC)ccc3c3ccnc(C)c32)nn1 [Compound 20-24b, 4-(3-(7-Methoxy-1-methyl-β-carbolin-9-yl)propyl)-1-(2-methoxyethyl)-1,2,3-triazole]

IC50 (DYRK1A): 138 nM
Molecule: COc1ccc2c3ccnc(C)c3n(Cc3noc(N)n3)c2c1 [Compound 20-38a, 1-(1-(7-methoxy-1-methyl-β-carbolin-9-yl)methyl)-5-amino-1,2,4-oxadiazole]

IC50 (DYRK1A): 66 nM
Molecule: COc1ccc2c3ccnc(C)c3n(CCc3noc(N)n3)c2c1 [Compound 20-38b, 3-(3-(7-methoxy-1-methyl-β-carbolin-9-yl)ethyl)-5-amino-1,2,4-oxadiazole]

IC50 (DYRK1A): 103 nM
Molecule: COc1ccc2c3ccnc(C)c3n(CCCCc3noc(N)n3)c2c1 [Compound 20-38c, 5-(5-(7-methoxy-1-methyl-β-carbolin-9-yl)butyl)-5-amino-1,2,4-oxadiazole]

IC50 (DYRK1A): 20 nM
Molecule: COc1ccc2c3ccnc(C)c3n(CCC(C)(C)C(N)=O)c2c1 [Compound 20-40, 2,2-dimethyl-4-(7-Methoxy-1-methyl-β-carbolin-9-yl)butanamide]

Molecule: Ethyl 4-(7-Methoxy-1-methyl-β-carbolin-9-yl)butanecarboximidate hydrochloride [Compound 20-22]
Human β-Cell proliferation ([1]; 10 μM): 0.8 (10)
